From patent US9550792B2, “Polycyclic substituted pyrazole kinase activity inhibitors and use thereof” (priority 2013, dated 2017)
≈ marks a conversion by molar mass, not a printed value. Where two headings read alike, the source gives them in different places.

Columns and labels:
CDK2/A = target: T1, CDK2/A (Homo sapiens, UniProt P24941); test: Inhibitory activity to CDK2 (FRET); assay type: biochemical; settings: for inhibition at 1 µM: read-out: CDK2 inhibition % (1 × 10^−6 mol/L)
T1 construct: purchased
Experimental: CDK2/A was purchased in the form of a kit or obtained through purification.
Procedures: CDK2/A is diluted to a suitable concentration with kinase diluent. The kinase reaction mixture contains CDK2/A, peptide substrate, HEPES (pH7.5), BRIJ-35, MgCl2 and EDTA. CDK2 phospho-peptide substrate is used as the control of 100% phosphorylation and ATP-free as the control of 0% phosphorylation. After 1 h, the diluted Development Reagent A is added into the reaction system. Then the reaction is allowed to proceed for 1 h and then quenched with Stop Reagent. […] The inhibitions of the tested compounds are calculated according to the formula.

Cryptococcus neoformans = test: Antifungal activity, modified broth microdilution; assay type: cell-based; settings: 48 hours at 35, approximately 50% reduction of growth; for MIC: Cryptococcus neoformans
Experimental: (§1) The test microorganisms are maintained on Sabourahd Dextrose Agar slant at 4[…]. Singlet suspension of each microorganism is prepared by growing the yeast overnight at 27[…] on a rotating drum in yeast-nitrogen base broth (YNB) with amino acids (Difco, Detroit, Mich.), (pH 7.0) and 0.05 morpholine propanesulphonic acid (MOPS). […] The activity of the test compound is determined using a modified broth microdilution technique. […] Well 12 serves as a growth control. […] Inoculated plate is incubated for 48 hours at 35 °C. […] Minimal Cytolytic Concentration (MCC) is determined by subculturing all wells from the 96-well plate onto a Sabourahd Dextrose Agar (SDA) plate, incubating for 1-2 days at 35 °C, and then checking viability.

[1] = system: Candida albicans - ATCC 36082; test: Antifungal activity, modified broth microdilution; assay type: cell-based; settings: 48 hours at 35, approximately 50% reduction of growth; for MIC: Candida albicans, ATCC36082
Experimental: as §1

Candida tropicalis = test: Antifungal activity, modified broth microdilution; assay type: cell-based; settings: 48 hours at 35, approximately 50% reduction of growth; for MIC: Candida tropicalis
Experimental: as §1

Candida parapsilosis = test: Antifungal activity, modified broth microdilution; assay type: cell-based; settings: 48 hours at 35, approximately 50% reduction of growth; for MIC: Lodderomyces parapsilosis
Experimental: as §1

Phytophthora infestans = assay type: in vivo; design: concentration or dose not given beside the values
Aurora A = target: T2, Aurora A (Homo sapiens, UniProt O14965); test: Inhibitory activity to Aurora A (FRET); assay type: biochemical; settings: for inhibition at 1 µM: read-out: Aurora A inhibition % (1 × 10^−6 mol/L)
T2 construct: purchased
T2 sequence (O14965 1-403): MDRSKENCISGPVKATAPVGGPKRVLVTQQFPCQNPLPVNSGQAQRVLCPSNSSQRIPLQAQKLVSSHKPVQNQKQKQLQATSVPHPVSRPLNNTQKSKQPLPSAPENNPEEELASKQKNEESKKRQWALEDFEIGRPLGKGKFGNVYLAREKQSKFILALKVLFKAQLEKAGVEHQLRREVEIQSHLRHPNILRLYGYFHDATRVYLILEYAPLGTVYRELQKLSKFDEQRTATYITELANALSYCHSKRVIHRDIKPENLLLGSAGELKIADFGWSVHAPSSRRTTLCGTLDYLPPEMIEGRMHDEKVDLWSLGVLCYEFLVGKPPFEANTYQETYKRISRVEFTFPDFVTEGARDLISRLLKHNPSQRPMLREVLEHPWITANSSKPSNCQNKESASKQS
Experimental: The inhibitory activities of the synthesized compounds for Aurora A is determined by fluorescence resonance energy transfer (FRET) and were compared with the positive control drug so as to screen the compounds with better activities. Aurora A was purchased in the form of a kit or obtained through purification. Procedures: Aurora A is diluted to a suitable concentration with kinase diluent. The kinase reaction mixture contains Aurora A, peptide substrate, HEPES (pH7.5), BRIJ-35, MgCl2 and EDTA. Aurora A phospho-peptide substrate is used as the control of 100% phosphorylation and ATP-free as the control of 0% phosphorylation. After 1 h, the diluted Development Reagent A is added into the reaction system. Then the reaction is allowed to proceed for 1 h and then quenched with Stop Reagent. The excitation wavelength is 400 nm and the fluorescence intensity is detected at 445 nm (coumarin) and 520 nm (fluorescein). The inhibitions of the tested compounds are calculated according to the formula.

SMILES | inhibition at 1 µM (CDK2/A) [%] | MIC (Cryptococcus neoformans) [µg/mL] | MIC [1] [µg/mL] | MIC (Candida tropicalis) [µg/mL] | MIC (Candida parapsilosis) [µg/mL] | Severity of tomato leaf blight (Phytophthora infestans; 0.0001 (unit not given)) | Severity of tomato leaf blight (Phytophthora infestans; 0.001 (unit not given)) | Severity of tomato leaf blight (Phytophthora infestans; 0.01 (unit not given)) | Severity of tomato leaf blight (Phytophthora infestans; 0.1 (unit not given)) | inhibition at 1 µM (Aurora A) [%] | melting point [°C] | CDK2 inhibition % (1 × 10^−6 mol/L) (CDK2/A) [%] | Cryptococcus neoformans MIC (Cryptococcus neoformans) [µg/mL] | Candida albicans - ATCC 36082 MIC [1] [µg/mL] | Candida tropicalis MIC (Candida tropicalis) [µg/mL] | Candida parapsilosis MIC (Candida parapsilosis) [µg/mL] | Aurora A inhibition % (1 × 10^−6 mol/L) (Aurora A) [%]
CN1CCN(Cc2ccc(NC(=O)c3n[nH]cc3Nc3ncnc4ccoc34)cc2)CC1 [Compound I-23, 4-(4-furo[3,2-d]pyrimidinylamino)-N-(4-((4-methyl-1-piperazinyl)methyl)phenyl)-1H-3-pyrazolecarboxamide] | 60.6 | 5.82 (≈ 13.5 µM) | 2.92 (≈ 6.75 µM) | 3.24 (≈ 7.49 µM) | 4.32 (≈ 9.99 µM) | +++ (40-60% blight) | ++ (15-40% blight) | − | − | 59.7 | 277 to 279 |  |  |  |  |  | 
Cc1c[nH]c2ncnc(Nc3c[nH]nc3C(=O)Nc3ccc(CN4CCN(C)CC4)cc3)c12 [Compound I-15, 4-(4-(5-methyl-7H-pyrrolo[2,3-d]pyrimidinyl)amino)-N-(4-((4-methyl-1-piperazinyl)methyl)phenyl)-1H-3-pyrazolecarboxamide] |  |  |  |  |  | ++ (15-40% blight) | ++ (15-40% blight) | + (0-15% blight) | − |  |  | 73.16 | 9.40 | 6.77 | 5.00 | 5.78 | 57.43
CN1CCN(Cc2ccc(NC(=O)c3n[nH]cc3Nc3nccc4ccoc34)cc2)CC1 [Compound I-37, 4-(7-furo[2,3-c]pyridylamino)-N-(4-((4-methyl-1-piperazinyl)methyl)phenyl)-1H-3-pyrazolecarboxamide] | 72.2 |  |  |  |  |  |  |  |  | 59.6 | 258 to 261 |  |  |  |  |  | 
O=C(Nc1ccc(CN2CCOCC2)cc1)c1n[nH]cc1Nc1nccc2occc12 [Compound I-34, 4-(4-furo[3,2-c]pyridylamino)-N-(4-((4-morpholinyl)methyl)phenyl)-1H-3-pyrazolecarboxamide] | 65.8 |  |  |  |  |  |  |  |  | 50.5 | 268 to 271 |  |  |  |  |  | 
CN1CCN(Cc2ccc(NC(=O)c3n[nH]cc3Nc3nccc4sccc34)cc2)CC1 [Compound I-25, 4-(4-thieno[3,2-c]pyridylamino)-N-(4-((4-methyl-1-piperazinyl)methyl)phenyl)-1H-3-pyrazolecarboxamide] | 59.5 | 2.83 (≈ 6.32 µM) | 3.38 (≈ 7.55 µM) | 1.08 (≈ 2.41 µM) | 0.96 (≈ 2.14 µM) | ++ (15-40% blight) | ++ (15-40% blight) | + (0-15% blight) | − | 59.7 | 268 to 270 |  |  |  |  |  | 
Cc1cc2ncnc(Nc3c[nH]nc3C(=O)Nc3ccc(CN4CCN(C)CC4)cc3)c2[nH]1 [Compound I-19, 4-(4-(6-methyl-5H-pyrrolo[3,2-d]pyrimidinyl)amino)-N-(4-((4-methyl-1-piperazinyl)methyl)phenyl)-1H-3-pyrazolecarboxamide] |  |  |  |  |  | ++++ (>60% blight) | ++ (15-40% blight) | + (0-15% blight) | − |  |  | 65.01 | 12.86 | 11.80 | 8.58 | 6.45 | 70.28
O=C(Nc1ccc(CN2CCOCC2)cc1)c1n[nH]cc1Nc1ccnc2ccoc12 [Compound I-40, 4-(7-furo[3,2-b]pyridylamino)-N-(4-((4-morpholinyl)methyl)phenyl)-1H-3-pyrazolecarboxamide] | 20.2 |  |  |  |  |  |  |  |  | 40.7 | 275 to 278 |  |  |  |  |  | 
O=C(Nc1ccc(CN2CCOCC2)cc1)c1n[nH]cc1Nc1nccc2sccc12 [Compound I-26, 4-(4-thieno[3,2-c]pyridylamino)-N-(4-((4-morpholinyl)methyl)phenyl)-1H-3-pyrazolecarboxamide] | 73.1 |  |  |  |  |  |  |  |  | 61.1 | 269 to 271 |  |  |  |  |  | 
O=C(Nc1ccc(CN2CCOCC2)cc1)c1n[nH]cc1Nc1ncnc2ccsc12 [Compound I-10, 4-(4-thieno[3,2-d]pyrimidinylamino)-N-(4-((4-morpholinyl)methyl)phenyl)-1H-3-pyrazolecarboxamide] | 56.2 |  |  |  |  |  |  |  |  | 54.9 | 275 to 277 |  |  |  |  |  | 
O=C(Nc1ccc(CN2CCOCC2)cc1)c1n[nH]cc1Nc1nccc2ccsc12 [Compound I-30, 4-(7-thieno[2,3-c]pyridylamino)-N-(4-((4-morpholinyl)methyl)phenyl)-1H-3-pyrazolecarboxamide] | 73.1 |  |  |  |  |  |  |  |  | 55.1 | 271 to 273 |  |  |  |  |  | 
CN1CCN(Cc2ccc(NC(=O)c3n[nH]cc3Nc3ccnc4occc34)cc2)CC1 [Compound I-41, 4-(4-furo[2,3-b]pyridylamino)-N-(4-((4-methyl-1-piperazinyl)methyl)phenyl)-1H-3-pyrazolecarboxamide] | 56.2 |  |  |  |  |  |  |  |  | 42.6 | 273 to 276 |  |  |  |  |  | 
O=C(Nc1ccc(CN2CCOCC2)cc1)c1n[nH]cc1Nc1ncnc2ccoc12 [Compound I-24, 4-(4-furo[3,2-d]pyrimidinylamino)-N-(4-((4-morpholinyl)methyl)phenyl)-1H-3-pyrazolecarboxamide] | 67.1 |  |  |  |  |  |  |  |  | 49.2 | 271 to 273 |  |  |  |  |  | 
CN1CCN(Cc2ccc(NC(=O)c3n[nH]cc3Nc3ncnc4cc[nH]c34)cc2)CC1 [Compound I-17, 4-(4-(5H-pyrrolo[3,2-d]pyrimidinyl)amino)-N-(4-((4-methyl-1-piperazinyl)methyl)phenyl)-1H-3-pyrazolecarboxamide] |  |  |  |  |  | +++ (40-60% blight) | ++ (15-40% blight) | + (0-15% blight) | − |  |  | 65.96 | 7.99 | 9.49 | 4.70 | 2.76 | 62.17
CN1CCN(Cc2ccc(NC(=O)c3n[nH]cc3Nc3ncnc4ccsc34)cc2)CC1 [Compound I-9, 4-(4-thieno[3,2-d]pyrimidinylamino)-N-(4-((4-methyl-1-piperazinyl)methyl)phenyl)-1H-3-pyrazole carboxamide] | 65 | 15.6 (≈ 34.7 µM) | 12.7 (≈ 28.4 µM) | 10.7 (≈ 23.9 µM) | 8.7 (≈ 19.4 µM) | ++ (15-40% blight) | ++ (15-40% blight) | − | − | 67.6 | > 280 |  |  |  |  |  | 
